The values below come from ChEMBL document CHEMBL4483862, “Open-source discovery of chemical leads for next-generation chemoprotective antimalarials” (2018).

pIC50: −log10 of the molar value. A value given as a limit tells only on which side of the number the result lay.

For the experiment, the system named is Plasmodium berghei. Put plainly: Luciferase/luciferin-expressing antifolate-resistant parasites were used to infect a culture of HepG2 cells that were pre-incubated with compounds. Infected hepatocytes emit light due to the luciferase reaction. Assay results are presented as the percent inhibition of light emission compared to control. […]. The following applies: sporozoite; for IC90: read-out: LUCIFERASE INFECTION ASSAY - IC90. It counts as functional.

Where [1] appears, read: read-out: LUCIFERASE INFECTION ASSAY - IC50.

Broadly, the pIC50 is the negative decadic logarithm of the IC50, by convention in mol/L. As a reminder, the IC90 is the concentration at which the effect reaches the 90% level. Consider `Cc1nn(-c2ccccc2)c2nc(-c3ccccc3)c(-c3nc4ccccc4[nH]3)c(-c3ccncc3)c12`, for which the concentration for an effect of 90% (IC90) was above 10 µM. Under “FFLUC_HILL_SLOPE 17.6, FFLUC_R_SQUARED 0.574, PBLUC_HILL_SLOPE 2.67, PBLUC_R_SQUARED 0.448, read-out: LUCIFERASE INFECTION ASSAY - IC50”, the pIC50 is 5.12.

Regarding `CN(C)CCNC(=O)c1cccc(-c2cnc3c(NC=O)cc(-c4cccc(C(F)(F)F)c4)cn23)c1`, the IC90 is above 6.66 µM. Further, under setting [1], the negative-log IC50 (pIC50) is below 5.18.

`CCCn1c(C)cc(C(=O)CN(C)S(=O)(=O)c2ccc(F)cc2)c1C`: the IC90 was above 10 µM. Besides, the pIC50 (HEPG2TOX_HILL_SLOPE 0.529, HEPG2TOX_R_SQUARED 0.126, read-out: LUCIFERASE INFECTION ASSAY - IC50) was below 5.00.

As to `COc1cc(CCC2CCN(c3ccc4nnc(C(F)(F)F)n4n3)CC2)cc(OC)c1`, the IC90 is above 10 µM. In addition, for the setting “PBLUC_HILL_SLOPE 2.86, PBLUC_R_SQUARED 0.563, read-out: LUCIFERASE INFECTION ASSAY - IC50”, the pIC50 was 5.23.

As for `N=C(Nc1cc(Cl)cc(Cl)c1)Nc1ncc(C(=O)c2ccccc2O)cn1`, the IC90 was above 10 µM. Also, the pIC50 (PBLUC_HILL_SLOPE 2.46, PBLUC_R_SQUARED 0.348, read-out: LUCIFERASE INFECTION ASSAY - IC50) is 5.28.

Take `Cc1ccccc1C(c1ncccc1C)N(C)C(=O)C1CCN(C(=O)c2cccc(Cl)c2)CC1` (stereo not given): the IC90 was above 6.93 µM. The pIC50 under setting [1] is below 5.16.

For `CC1(C)CN=C(N(C(=O)Nc2ccc(Cl)c(Cl)c2)c2ccccc2)S1`, the IC90 is above 8.37 µM. The pIC50 under setting [1] is below 5.08.

Regarding `COc1cccc(-c2nc3ccc(NC(=O)Nc4ccc5c(c4)OCO5)cn3n2)c1`, the IC90 was above 10 µM. In addition, the pIC50 (PBLUC_HILL_SLOPE 3.78, PBLUC_R_SQUARED 0.75, read-out: LUCIFERASE INFECTION ASSAY - IC50) was 5.15.

With `COc1ccc(-c2csc3nc(-c4cccnc4)nc(NCCN4CCOCC4)c23)cc1OC`, the IC90 was above 10 µM. For the same molecule, the pIC50 (PBLUC_HILL_SLOPE 9.41, PBLUC_R_SQUARED 0.036, read-out: LUCIFERASE INFECTION ASSAY - IC50) is 5.03.

As for `C/C(=N\Nc1c(Cl)cc(Cl)cc1Cl)c1ccc(N2CCOCC2)cc1`, the IC90 is above 10 µM. Also, the pIC50 under setting [1] was 5.32.

Consider `Oc1ccc(CNC(c2ccc3c(c2)CCC3)c2cccs2)cc1` (stereo not given), for which the IC90 is above 10 µM. The pIC50 under setting [1] was below 5.00.

On to `CCOc1cc(/C=C(/C(=O)NCc2ccc(Cl)cc2)c2nc3ccccc3[nH]2)ccc1OC`, for which the IC90 was above 10 µM. In addition, the pIC50 (HEPG2TOX_HILL_SLOPE 5.77, HEPG2TOX_R_SQUARED 0.35, PBLUC_HILL_SLOPE 0.685, PBLUC_R_SQUARED 0.126, read-out: LUCIFERASE INFECTION ASSAY - IC50) was below 5.00.

In the case of `COc1ccc(NC(=O)c2ccc(O)nc2)cc1S(=O)(=O)N1CCOCC1`, the IC90 was above 10 µM. For the same molecule, the pIC50 under setting [1] is below 5.00.

For the molecule `c1ccc(Oc2cccc(-c3ccc4nnc(-c5ccc6nccnc6c5)n4c3)c2)cc1`, the IC90 is above 10 µM. In addition, the pIC50 (PBLUC_HILL_SLOPE 2.21, PBLUC_R_SQUARED 0.734, read-out: LUCIFERASE INFECTION ASSAY - IC50) is 5.34.

`CC(C)c1ccc(/C=C2\CCn3c2nc(=O)c2ccccc23)cc1`: the IC90 was above 10.4 µM. For the same molecule, the pIC50 (PBLUC_HILL_SLOPE 2.01, PBLUC_R_SQUARED 0.333, read-out: LUCIFERASE INFECTION ASSAY - IC50) is 5.38.

In the case of `O=C(/C(=C/c1ccc(N2CCOCC2)cc1)c1nc2ccccc2[nH]1)c1cccc(Cl)c1`, the IC90 was above 10 µM. Besides, under setting [1], the pIC50 was below 5.00.

As for `c1csc(SCc2ccc3nonc3c2)c1`, the IC90 is above 13.3 µM. Further, the pIC50 (PBLUC_HILL_SLOPE 1.33, PBLUC_R_SQUARED 0.35, read-out: LUCIFERASE INFECTION ASSAY - IC50) is below 4.88.

For `Cc1ccc2[nH]c(-c3cccs3)c(CCC(=O)N(C)C3CCS(=O)(=O)C3)c2c1` (stereo not given), the IC90 was found to be 3.85 µM. Moreover, where the note is “PBLUC_HILL_SLOPE 12.5, PBLUC_R_SQUARED 0.681, read-out: LUCIFERASE INFECTION ASSAY - IC50”, the pIC50 was 5.49.

On to `O=C(Nc1ccc(Cl)cc1)Nc1cc(-c2cc(-c3ccccc3)c(C(F)(F)F)s2)n[nH]1`, for which the IC90 was above 7.13 µM. In addition, the pIC50 (PBLUC_HILL_SLOPE 12.1, PBLUC_R_SQUARED 0.235, read-out: LUCIFERASE INFECTION ASSAY - IC50) was 5.16.

`O=C(NC1CCCCC1C(F)(F)F)c1csc(-c2ccccc2)n1` (stereo not given): the IC90 stood at 3.92 µM. The pIC50 (HEPG2TOX_HILL_SLOPE 0.159, HEPG2TOX_R_SQUARED 0.617, PBLUC_HILL_SLOPE 14, PBLUC_R_SQUARED 0.734, read-out: LUCIFERASE INFECTION ASSAY - IC50) was 5.47.

Regarding `CN(CCCc1[nH]nc(N)c1C#N)c1nc(-c2ccccn2)nc2scc(-c3ccccc3)c12`, the IC90 was above 10 µM. Moreover, the pIC50 under setting [1] was 5.11.

Consider `COc1cc(/C=C(\C#N)c2cccn2C)cc(OC)c1OC`, for which the IC90 is above 11.1 µM. Further, the pIC50 (HEPG2TOX_HILL_SLOPE 8.79, HEPG2TOX_R_SQUARED 0.806, read-out: LUCIFERASE INFECTION ASSAY - IC50) was below 4.95.

Take `CCCCCN1C(=O)/C(=N\n2c(-c3ccccc3F)cs/c2=N\C2CCCCC2)c2ccccc21`: the IC90 was above 10 µM. For the same molecule, the pIC50 (FFLUC_HILL_SLOPE 1.7, FFLUC_R_SQUARED 0.73, PBLUC_HILL_SLOPE 13.5, PBLUC_R_SQUARED 0.29, read-out: LUCIFERASE INFECTION ASSAY - IC50) is 5.07.

In the case of `O=C(COCc1ccccc1)Nc1nc2ccccn2c1C(=O)NC1CCCCC1`, the IC90 is above 8.12 µM. Besides, the pIC50 under setting [1] was below 5.09.

On to `O=C(Nc1nc2ccc(Oc3ccccc3)cc2s1)C1=COCCO1`, for which the IC90 was above 10 µM. Further, the pIC50 (PBLUC_HILL_SLOPE 0.789, PBLUC_R_SQUARED 0.599, read-out: LUCIFERASE INFECTION ASSAY - IC50) was 5.28.

With `CCCN(Cc1nc(-c2ccccc2)c2ccccc2n1)Cc1nc2ccsc2c(=O)[nH]1`, the IC90 is above 10 µM. Further, the pIC50 under setting [1] was below 5.00.

In the case of `CN(C)Cc1ccc(-c2ccccc2CNC(=O)CC2CC3CCC2C3)cc1` (stereo not given), the IC90 is above 10 µM. The pIC50 (PBLUC_HILL_SLOPE 2, PBLUC_R_SQUARED 0.172, read-out: LUCIFERASE INFECTION ASSAY - IC50) was below 5.00.

Take `Cc1nc(SCC(=O)Nc2nc(Br)sc2Cc2ccc([N+](=O)[O-])cc2)sc1Cc1ccccc1`: the IC90 was above 10 µM. Further, the pIC50 (FFLUC_HILL_SLOPE 16.2, FFLUC_R_SQUARED 0.412, read-out: LUCIFERASE INFECTION ASSAY - IC50) was below 5.00.

Regarding `CC(C)(C)c1cc2nc(C(F)(F)F)cc(SCCOC(=O)Nc3cccc(Cl)c3)n2n1`, the IC90 was above 6.98 µM. Further, the pIC50 (HEPG2TOX_HILL_SLOPE 1.03, HEPG2TOX_R_SQUARED 0.0682, read-out: LUCIFERASE INFECTION ASSAY - IC50) is below 5.16.

`CCNc1nc(CN2CCCCC2)nc2scc(-c3ccccc3)c12`: the IC90 stood at 5.12 µM. The pIC50 (PBLUC_HILL_SLOPE 4.71, PBLUC_R_SQUARED 0.781, read-out: LUCIFERASE INFECTION ASSAY - IC50) was 5.49.

As for `COc1cc(-c2cnc3cnc(-c4ccccc4N(C)C)cn23)ccc1O`, the IC90 was above 9.16 µM. Further, where the note is “HEPG2TOX_HILL_SLOPE 8.81, HEPG2TOX_R_SQUARED 0.374, PBLUC_HILL_SLOPE 9.99, PBLUC_R_SQUARED 0.0967, read-out: LUCIFERASE INFECTION ASSAY - IC50”, the pIC50 was 5.11.

As for `O=C(Nc1ccc(Cl)cc1)Nc1cc(Cl)sc1Cl`, the IC90 turned out to be 3.79 µM. Besides, the pIC50 under setting [1] is 5.51.

Regarding `O=C(O)COc1ccccc1/C=C1\NC(=S)NC1=O`, the IC90 was above 10 µM. Besides, under setting [1], the pIC50 was below 5.00.

In the case of `O=C(O)COc1cc(-c2ccccc2)nc2ccccc12`, the IC90 was found to be 4.53 µM. Moreover, the pIC50 (HEPG2TOX_HILL_SLOPE 2.22, HEPG2TOX_R_SQUARED 0.747, PBLUC_HILL_SLOPE 12.7, PBLUC_R_SQUARED 0.342, read-out: LUCIFERASE INFECTION ASSAY - IC50) is 5.42.

Regarding `CC(NC(=O)C1CCCN(C(=O)OC(C)(C)C)C1)c1ccc(-n2ccnc2)cc1` (stereo not given), the IC90 is above 2 µM. The pIC50 under setting [1] was below 5.70.

Turning to `CCCCC(CC)C(=O)Nc1nc2ccccn2c1C(=O)NC1CCCCC1` (stereo not given), the IC90 is above 8.58 µM. In addition, the pIC50 (PBLUC_HILL_SLOPE 8.64, PBLUC_R_SQUARED 0.333, read-out: LUCIFERASE INFECTION ASSAY - IC50) was 5.10.

Turning to `CC(C)C(N)c1csc(NC(=O)c2cc(C(C)(C)C)nn2Cc2ccccc2)n1` (stereo not given), the IC90 stood at 3.46 µM. Also, the pIC50 (PBLUC_HILL_SLOPE 594, PBLUC_R_SQUARED 0.291, read-out: LUCIFERASE INFECTION ASSAY - IC50) was 5.46.

Take `O=C(CCC(=O)N1CCC(C(O)(c2ccccc2)c2ccccc2)CC1)c1cccs1`: the IC90 worked out at 3.65 µM. For the same molecule, the pIC50 (HEPG2TOX_HILL_SLOPE 0.15, HEPG2TOX_R_SQUARED 0.513, PBLUC_HILL_SLOPE 4.19, PBLUC_R_SQUARED 0.279, read-out: LUCIFERASE INFECTION ASSAY - IC50) is 5.67.

As to `COC(=O)c1c(-c2ccccc2Cl)noc1/C=C/c1c[nH]c(=O)c2c(-c3ccccc3Cl)noc12`, the concentration for an effect of 90% (IC90) was above 6.49 µM. For the same molecule, under “PBLUC_HILL_SLOPE 1.63, PBLUC_R_SQUARED 0.42, read-out: LUCIFERASE INFECTION ASSAY - IC50”, the pIC50 was 5.44.

On to `COc1cc(OC)c(N2CC(C(=O)NC(C)c3ccc(F)c(F)c3)CC2=O)cc1Cl` (stereo not given), for which the IC90 was above 10 µM. In addition, the pIC50 under setting [1] is below 5.00.
